Reference: US20120196824A1, “THERAPEUTIC AGENT FOR CEREBRAL INFARCTION” (MITSUBISHI TANABE PHARMA CORPORATION, priority 2009, published 2012)
Counter-ions that a name gives are not always drawn.

test system: homocysteine synthesis; experiment: Measurement of homocysteine synthesis inhibitory activity in vivo (methionine-loaded mouse, plasma homocysteine); details: dose of 10 mg/kg, oral, BALB/c mouse; methionine water 1 hr later; plasma 30 min after; read-out: activity (homocysteine synthesis inhibitory rate)
Protocol: A sample was orally administered to BALB/c mouse and, 1 hr later, methionine water (50 g/L) was orally administered at a proportion of 10 ml/kg. 30 min later, blood samples were collected with heparin from the abdominal vein and plasma was obtained. The plasma homocysteine concentration was measured by treating the plasma with tributylphosphine, removing protein with 10% trichloroacetic acid (TCA), fluorescent labeling the supernatant with 4-fluoro-7-sulfobenzofurazan ammonium salt (SBD-F) under alkali conditions, and quantifying by HPLC. The homocysteine synthesis inhibitory rate of the sample was determined with the difference in the homocysteine value between methionine water-loaded animal and methionine water-unloaded animal as 100%. The detailed conditions of HPLC were as follows.
column used: Wakopak^R HandyODS 150*4.6 mm (Wako Pure Chemical Industries, Ltd.) elution condition: 1.0 ml/min elution solvent: 0.1M phosphate buffer (pH 6.0) 2% methanol wavelength: ex 385 nm em 515 nm

`CCNCCNC(=O)CN(CC(=O)N(C)N1Cc2ccc(F)cc2C1)c1cc(-c2noc(CO)n2)ccc1C` [Example 292, N^2-{2-[(5-fluoro-1,3-dihydro-2H-isoindol-2-yl)(methyl)amino]-2-oxoethyl}-N^2-{5-[5-(hydroxymethyl)-1,2,4-oxadiazol-3-yl]-2-methylphenyl}-N^1-[2-(ethylamino)ethyl]glycinamide hydrochloride] gave an inhibition in vivo at 10 mg/kg of 20 to 40%.

molecular target: T1, Human-recombinant-S-Adenosyl-L-Homocysteine Hydrolase (Homo sapiens, UniProt P23526); experiment: Measurement of enzyme inhibitory activity (hydrolysis of S-Adenosyl-L-Homocysteine, HPLC); type: biochemical; details: S-Adenosyl-L-Homocysteine 10 μM, pH 7.2, 37° C., 15 min
T1 construct: purchased Diazyme Laboratories
T1 sequence (P23526 whole entry): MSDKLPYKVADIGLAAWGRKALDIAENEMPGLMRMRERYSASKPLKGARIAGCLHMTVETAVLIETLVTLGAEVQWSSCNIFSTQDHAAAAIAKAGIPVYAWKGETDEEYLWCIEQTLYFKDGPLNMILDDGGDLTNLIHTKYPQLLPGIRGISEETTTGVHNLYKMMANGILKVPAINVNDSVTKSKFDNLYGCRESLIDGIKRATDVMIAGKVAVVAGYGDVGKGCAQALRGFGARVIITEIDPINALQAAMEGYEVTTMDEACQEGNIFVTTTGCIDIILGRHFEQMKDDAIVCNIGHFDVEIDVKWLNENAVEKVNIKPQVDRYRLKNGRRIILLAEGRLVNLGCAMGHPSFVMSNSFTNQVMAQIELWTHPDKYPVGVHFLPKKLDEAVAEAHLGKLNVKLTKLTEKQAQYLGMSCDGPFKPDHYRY
Protocol: The enzyme inhibitory activity of the compounds of the Examples was measured using the hydrolysis activity of S-Adenosyl-L-Homocysteine as an index. The measurement method was modification of the method of Henry H. Richards et al. (J. Biol. Chem. 253, 4476-4480, 1978). That is, S-Adenosyl-L-Homocysteine (10 μM) and Adenosine Deaminase (Roche) (4 units) were added to 50 mM phosphate buffer (pH 7.2, containing 1 mM EDTA) with the total amount being 200 μl, and to the solution were added a test substance and then Human-recombinant-S-Adenosyl-L-Homocysteine Hydrolase (50 ng, Diazyme Laboratories) to start the reaction, and the mixture was incubated at 37° C. for 15 min. The reaction was quenched by the addition of 1N aqueous perchloric solution (20 μl), and the mixture was centrifuged under the conditions of 10000 rpm, 5 min, 4° C. The supernatant was collected, and the amount of S-Adenosyl-L-Homocysteine after the reaction was quantified by HPLC. The column used was a reversed-phase column. The detailed conditions of HPLC were as follows.
column used: Wakopak^R HandyODS 150*4.6 mm (Wako Pure Chemical Industries, Ltd.) elution condition: 1.0 ml/min elution solvent: 0.1M acetate buffer (pH 4.0) containing 10 mM 1-heptanesulfonic acid containing 4% acetonitrile wavelength: 258 nm (UV) The inhibitory rate was determined with the amount of decrease in S-Adenosyl-L-Homocysteine before and after the reaction without using the test substance as 100%.
Inhibitory rate (%)={(amount of decrease of S-Adenosyl-L-Homocysteine in the presence of test substance)/(amount of decrease of S-Adenosyl-L-Homocysteine in the absence of test substance)}×100

In order of rising IC50:
1. CCNCCNC(=O)CN(CC(=O)N(C)N1Cc2ccccc2C1)c1cc2cn(CC)nc2cc1C [Example 247, N^2-{2-[1,3-dihydro-2H-isoindol-2-yl(methyl)amino]-2-oxoethyl}-N^2-(2-ethyl-6-methyl-2H-indazol-5-yl)-N^1-[2-(ethylamino)ethyl]glycinamide hydrochloride]  15 nM
2. Cc1cc2onc(C)c2cc1N(CC(=O)NCCNC(C)C)CC(=O)N(C)N1Cc2ccccc2C1 [Example 180, N^2-{2-[1,3-dihydro-2H-isoindol-2-yl(methyl)amino]-2-oxoethyl}-N^2-(3,6-dimethyl-1,2-benzisoxazol-5-yl)-N^1-[2-(isopropylamino)ethyl]glycinamide]  15 nM
3. CCNCCNC(=O)CN(CC(=O)N(C)N1Cc2ccccc2C1)c1cc2c(C)noc2cc1C [Example 181, N^2-{2-[1,3-dihydro-2H-isoindol-2-yl(methyl)amino]-2-oxoethyl}-N^2-(3,6-dimethyl-1,2-benzisoxazol-5-yl)-N^1-[2-(ethylamino)ethyl]glycinamide]  16 nM
4. CCNCCNC(=O)CN(CC(=O)N(C)N1Cc2ccccc2C1)c1cc(-c2nc(C)no2)ccc1C [Example 85, N^2-{2-[1,3-dihydro-2H-isoindol-2-yl(methyl)amino]-2-oxoethyl}-N^2-[2-methyl-5-(3-methyl-1,2,4-oxadiazol-5-yl)phenyl]-N^1-[2-(ethylamino)ethyl]glycinamide]  17 nM
5. CCNCCNC(=O)CN(CC(=O)N(C)N1Cc2ccccc2C1)c1cc(-c2noc(C)n2)ccc1C [Example 16, N^2-{2-[1,3-dihydro-2H-isoindol-2-yl(methyl)amino]-2-oxoethyl}-N^2-[2-methyl-5-(5-methyl-1,2,4-oxadiazol-3-yl)phenyl]-N^1-[2-(ethylamino)ethyl]glycinamide]  19 nM
6. CCNCCNC(=O)CN(CC(=O)N(C)N1Cc2ccccc2C1)c1ccc(-c2nc(C(N)=O)co2)cc1C [Example 309, N^2-{4-[4-(aminocarbonyl)-1,3-oxazol-2-yl]-2-methylphenyl}-N^2-{2-[1,3-dihydro-2H-isoindol-2-yl(methyl)amino]-2-oxoethyl}-N^1-[2-(ethylamino)ethyl]glycinamide dihydrochloride]  23 nM
7. CCNCCNC(=O)CN(CC(=O)N(C)N1Cc2ccccc2C1)c1cc2oc(=O)n(C)c2cc1C [Example 193, N^2-{2-[1,3-dihydro-2H-isoindol-2-yl(methyl)amino]-2-oxoethyl}-N^2-(3,5-dimethyl-1,3-benzoxazol-2(3H)-on-6-yl)-N^1-[2-(ethylamino)ethyl]glycinamide]  29 nM
8. CCNCCNC(=O)CN(CC(=O)N(C)N1Cc2ccc(F)cc2C1)c1cc2c(cnn2C)cc1C [Example 259, N^2-(1,5-dimethyl-1H-indazol-6-yl)-N^2-{2-[(5-fluoro-1,3-dihydro-2H-isoindol-2-yl)(methyl)amino]-2-oxoethyl}-N^1-[2-(ethylamino)ethyl]glycinamide hydrochloride]  30 nM
9. CCNCCNC(=O)CN(CC(=O)N(C)N1Cc2ccccc2C1)c1cc2c(cc1C)CN(CC)C2=O [Example 284, N^2-{2-[1,3-dihydro-2H-isoindol-2-yl(methyl)amino]-2-oxoethyl}-N^2-(2-ethyl-6-methyl-3-oxo-2,3-dihydro-1H-isoindol-5-yl)-N^1-[2-(ethylamino)ethyl]glycinamide dihydrochloride]  33 nM
10. CCNCCNC(=O)CN(CC(=O)N(C)N1Cc2ccccc2C1)c1ccc(C(C)=O)cc1C [Example 210, N^2-(4-acetyl-2-methylphenyl)-N^2-{2-[1,3-dihydro-2H-isoindol-2-yl(methyl)amino]-2-oxoethyl}-N^1-[2-(ethylamino)ethyl]glycinamide]  34 nM
11. CCNCCNC(=O)CN(CC(=O)N(C)N1Cc2ccccc2C1)c1ccc(-c2ccc(C(N)=O)cn2)cc1C [Example 301, N^2-{4-[5-(aminocarbonyl)pyridin-2-yl]-2-methylphenyl}-N^2-{2-[1,3-dihydro-2H-isoindol-2-yl(methyl)amino]-2-oxoethyl}-N^1-[2-(ethylamino)ethyl]glycinamide dihydrochloride]  37 nM
12. Cc1cc2c(cc1N(CC(=O)NCCNC(C)C)CC(=O)N(C)N1Cc3ccccc3C1)oc(=O)n2C [Example 192, N^2-{2-[1,3-dihydro-2H-isoindol-2-yl(methyl)amino]-2-oxoethyl}-N^2-(3,5-dimethyl-1,3-benzoxazol-2(3H)-on-6-yl)-N^1-[2-(isopropylamino)ethyl]glycinamide]  46 nM
13. CCNCCNC(=O)CN(CC(=O)N(C)N1Cc2ccc(F)cc2C1)c1cc2c(C)nn(C)c2cc1C [Example 256, N^2-{2-[(5-fluoro-1,3-dihydro-2H-isoindol-2-yl)(methyl)amino]-2-oxoethyl}-N^2-(1,3,6-trimethyl-1H-indazol-5-yl)-N^1-[2-(ethylamino)ethyl]glycinamide hydrochloride]  47 nM
14. CCNCCNC(=O)CN(CC(=O)N(C)N1Cc2cccc(F)c2C1)c1ccc(-c2noc(C)n2)cc1C [Example 205, N^2-{2-[(4-fluoro-1,3-dihydro-2H-isoindol-2-yl)(methyl)amino]-2-oxoethyl}-N^2-[2-methyl-4-(5-methyl-1,2,4-oxadiazol-3-yl)phenyl]-N^1-[2-(ethylamino)ethyl]glycinamide]  48 nM
15. CCNCCNC(=O)CN(CC(=O)N(C)N1Cc2ccccc2C1)c1cc2c(cc1C)oc(=O)n2C [Example 191, N^2-{2-[1,3-dihydro-2H-isoindol-2-yl(methyl)amino]-2-oxoethyl}-N^2-(3,6-dimethyl-1,3-benzoxazol-2(3H)-on-5-yl)-N^1-[2-(ethylamino)ethyl]glycinamide]  51 nM
16. CC(=O)c1ccc(C)c(N(CC(=O)NCCNC(C)C)CC(=O)N(C)N2Cc3ccccc3C2)c1 [Example 56, N^2-(5-acetyl-2-methylphenyl)-N^2-{2-[1,3-dihydro-2H-isoindol-2-yl(methyl)amino]-2-oxoethyl}-N^1-[2-(isopropylamino)ethyl]glycinamide]  52 nM
17. CCNCCNC(=O)CN(CC(=O)N(C)N1Cc2ccc(F)cc2C1)c1ccc(-c2noc(C)n2)cc1C [Example 204, N^2-{2-[(5-fluoro-1,3-dihydro-2H-isoindol-2-yl)(methyl)amino]-2-oxoethyl}-N^2-[2-methyl-4-(5-methyl-1,2,4-oxadiazol-3-yl)phenyl]-N^1-[2-(ethylamino)ethyl]glycinamide]  65 nM
18. CCNCCNC(=O)CN(CC(=O)N(C)N1Cc2ccc(F)cc2C1)c1cc2c(cc1C)c(CC)nn2CC(F)F [Example 279, N^2-[1-(2,2-difluoroethyl)-3-ethyl-5-methyl-1H-indazol-6-yl]-N^2-{2-[(5-fluoro-1,3-dihydro-2H-isoindol-2-yl)(methyl)amino]-2-oxoethyl}-N^1-[2-(ethylamino)ethyl]glycinamide hydrochloride]  66 nM
19. Cc1cc2oc(=O)n(C)c2cc1N(CC(=O)NCCNC(C)C)CC(=O)N(C)N1Cc2ccccc2C1 [Example 190, N^2-{2-[1,3-dihydro-2H-isoindol-2-yl(methyl)amino]-2-oxoethyl}-N^2-(3,6-dimethyl-1,3-benzoxazol-2(3H)-on-5-yl)-N^1-[2-(isopropylamino)ethyl]glycinamide]  88 nM
20. Cc1cc2onc(C)c2cc1N(CC(=O)NC[C@@H]1CCCN1)CC(=O)N(C)N1Cc2ccccc2C1 [Example 328, N^2-{2-[1,3-dihydro-2H-isoindol-2-yl(methyl)amino]-2-oxoethyl}-N^2-(3,6-dimethyl-1,2-benzisoxazol-5-yl)-N^1-[(2S)-pyrrolidin-2-ylmethyl]glycinamide dihydrochloride]  150 nM
